Laboratory results from ChEMBL document CHEMBL4312002, “Impact of hydroxy moieties at the benzo[7]annulene ring system of GluN2B ligands: Design, synthesis and biological evaluation” (Bioorg Med Chem, 2019).

What was measured:
[1] = Displacement of [3H]ifenprodil from GluN1A/GluN2B (unknown origin) expressed in mouse L(tk-) cell membranes after 120 mins by solid scintillation counting method; design: species or system Homo sapiens
[2] = Cytoprotection against glutamate/glycine-induced cytotoxicity against mouse LTK cells expressing GluN1a/GluN2B at 10 uM measured after 30 mins by LDH assay relative to control; type: functional
[3] = Cytoprotection against glutamate/glycine-induced cytotoxicity against mouse LTK cells expressing GluN1a/GluN2B preincubated 30 mins followed by glutamate/glycine addition and measured after 6 hrs by LDH assay; type: functional, cell-based
[4] = Cytoprotection against glutamate/glycine-induced cytotoxicity against mouse LTK cells expressing GluN1a/GluN2B assessed as inhibition of cell growth measured after 12 hrs by LDH assay; type: functional, cell-based
[5] = Retention time of (2S,3S,4S,5R)-3,4,5-trihydroxy-6-(7-(methyl(3-phenylpropyl)amino)-6,7,8,9-tetrahydro-5H-benzo[7]annulen-5-yloxy)tetrahydro-2H-pyran-2-carboxylic acid metabolite in C57BL/6 mouse liver microsomes at 25 uM by LC-qTOF/MS analysis; type: ADME, Microsome
Sus scrofa = organism: Sus scrofa; assay: Displacement of [3H]-(+)-MK-801 from PCP binding site of NMDA receptor in pig brain cortex membranes at 1 uM after 120 mins by solid scintillation counting method relative to control; type: cell membranes
[6] = target: T1, Sigma intracellular receptor 2 (Rattus norvegicus, UniProt Q5U3Y7); assay: Displacement of [3H]di-o-tolylguanidine from sigma2 receptor in rat liver membranes measured after 120 mins by solid scintillation counting method; type: cell membranes
T1 sequence (Q5U3Y7 whole entry): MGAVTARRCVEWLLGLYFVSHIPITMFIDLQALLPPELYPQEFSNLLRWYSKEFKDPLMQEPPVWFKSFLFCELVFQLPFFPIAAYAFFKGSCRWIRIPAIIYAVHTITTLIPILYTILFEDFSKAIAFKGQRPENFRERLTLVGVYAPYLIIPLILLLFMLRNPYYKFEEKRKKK

[7] = target: Sigma non-opioid intracellular receptor 1 (Cavia porcellus) (UniProt Q60492); assay: Displacement of [3H]-(+)-pentazocine from sigma1 receptor in guinea pig brain cortex membranes at 1 uM incubated for 120 mins by solid scintillation counting method relative to control; type: cell membranes
[8] = target: Sigma non-opioid intracellular receptor 1 (Cavia porcellus, UniProt Q60492); assay: Displacement of [3H]-(+)-pentazocine from sigma1 receptor in guinea pig brain cortex membranes incubated for 120 mins by solid scintillation counting method; type: cell membranes
[9] = Drug metabolism in C57BL/6 mouse liver microsomes assessed as (2S,3S,4S,5R)-3,4,5-trihydroxy-6-(7-(methyl(3-phenylpropyl)amino)-6,7,8,9-tetrahydro-5H-benzo[7]annulen-5-yloxy)tetrahydro-2H-pyran-2-carboxylic acid formation at 25 uM incubated for 90 mins in presence of phase 1 and 2 cofactors NADPH and UDPGA by LC-qTOF/MS analysis; type: ADME, Microsome; settings: 1.5 h
[10] = Drug metabolism in C57BL/6 mouse liver microsomes assessed as hydroxylation at aromatic ring at 25 uM incubated for 90 mins in presence of phase 1 cofactor NADPH by LC-qTOF/MS analysis; type: ADME, Microsome; settings: 1.5 h
[11] = Drug metabolism in C57BL/6 mouse liver microsomes assessed as hydroxylation at aliphatic ring at 25 uM incubated for 90 mins in presence of phase 1 cofactor NADPH by LC-qTOF/MS analysis; type: ADME, Microsome; settings: 1.5 h
[12] = Drug metabolism in C57BL/6 mouse liver microsomes assessed as hydroxylation at aliphatic and aromatic ring at 25 uM incubated for 90 mins in presence of phase 1 cofactor NADPH by LC-qTOF/MS analysis; type: ADME, Microsome; settings: 1.5 h
[13] = Drug metabolism in C57BL/6 mouse liver microsomes assessed as glucuronide metabolite formation at 25 uM incubated for 90 mins in presence of phase 1 and 2 cofactors NADPH and UDPGA by LC-qTOF/MS analysis; type: ADME, Microsome; settings: 1.5 h
[14] = Retention time of compound in C57BL/6 mouse liver microsomes at 25 uM by LC-qTOF/MS analysis; type: ADME, Microsome
in vitro = settings: C57BL/6, mouse, liver microsomes
Description: Metabolic stability in C57BL/6 mouse liver microsomes assessed as parent compound remaining at 25 uM incubated for 90 mins in presence of NADPH by LC-qTOF/MS analysis

Chain of Sigma non-opioid intracellular receptor 1 (Q60492 whole entry): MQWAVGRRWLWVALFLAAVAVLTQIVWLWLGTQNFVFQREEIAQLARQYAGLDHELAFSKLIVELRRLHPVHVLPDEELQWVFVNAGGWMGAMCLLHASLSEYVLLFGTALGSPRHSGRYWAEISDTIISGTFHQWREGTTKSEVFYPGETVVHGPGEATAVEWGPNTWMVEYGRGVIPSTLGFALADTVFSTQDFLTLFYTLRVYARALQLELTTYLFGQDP
Chain of Sigma non-opioid intracellular receptor 1 (Cavia porcellus) (Q60492 whole entry): as above

Row | inhibition (Sus scrofa) | Ki [6] | Ki [8] | Compound | Ki [1] | Activity [2] | IC50 [3] | further results
1 | – | – | – | c1ccc(CCCNC2CCc3ccccc3CC2)cc1 | 16 nM | 29% | – | –
2 | – | – | – | C[C@@H](CN1CCC(Cc2ccccc2)CC1)[C@@H](O)c1ccc(O)cc1 | 170 nM | – | 13 nM | –
3 | – | – | – | COc1ccc2c(c1)CCC(NCCCc1ccccc1)CC2 (stereo unspecified) | 10 nM | – | – | IC50 [4]: 29 nM
4 | – | – | – | Oc1ccc2c(c1)CCC(NCCCCc1ccccc1)CC2 (stereo unspecified) | 21 nM | – | 3000 nM | –
5 | – | – | – | Oc1ccc2c(c1)CCC(NCCCc1ccccc1)CC2 (stereo unspecified) | 28 nM | – | > 10000 nM | –
6 | – | – | – | CN(CCCc1ccccc1)C1CCc2ccccc2C(O[C@@H]2O[C@H](C(=O)O)[C@@H](O)[C@H](O)[C@H]2O)C1 (stereo partly specified) | – | – | – | Retention_time [5]: 4.8 min
7 | 14% | 630 nM | – | OC1c2ccccc2CCC(NCCCc2ccccc2)C1O (mixture of isomers) | 2000 nM | 41% | – | inhibition [7]: 17%
8 | 0% | 66 nM | 33 nM | CN(CCCCc1ccccc1)C1CCc2ccccc2C(O)C1 (mixture of isomers) | 64 nM | 10% | – | –
9 | 0% | 100 nM | 1300 nM | OC1Cc2ccccc2CCC1NCCCc1ccccc1 (mixture of isomers) | 380 nM | 22% | – | –
10 | 0% | 35 nM | 39 nM | CN(CCCc1ccccc1)C1CCc2ccccc2C(O)C1 (mixture of isomers) | 49 nM | – | 580 nM | Drug metabolism [9]: Metabolite_Detected; Drug metabolism [10]: Metabolite_Detected; Drug metabolism [11]: Metabolite_Detected; Drug metabolism [12]: Metabolite_Detected; Drug metabolism [13]: Metabolite_Detected; Retention_time [14]: 5.1 min; remaining at 1.5 h, 25 µM (in vitro): 17%
11 | 0% | 100 nM | 140 nM | OC1CC(NCCCCc2ccccc2)CCc2ccccc21 (mixture of isomers) | – | 12% | – | –
12 | 0% | 100 nM | 430 nM | OC1Cc2ccccc2CCC1NCCCCc1ccccc1 (mixture of isomers) | 270 nM | 0% | – | –
13 | 0% | 28 nM | 160 nM | OC1CC(NCCCc2ccccc2)CCc2ccccc21 (mixture of isomers) | 77 nM | – | 1600 nM | –
14 | – | – | – | COc1ccc2c(c1)CC[C@@H](NCCCc1ccccc1)C[C@H]2O (racemic) | 16 nM | – | – | IC50 [4]: 12 nM
15 | – | – | – | OC(CN1CCC(Cc2ccc(F)cc2)CC1)c1ccc(Cl)cc1 (stereo unspecified) [ELIPRODIL] | 13 nM | – | – | –
16 | – | – | – | CC(C(O)c1ccc(O)cc1)N1CCC(Cc2ccccc2)CC1 (stereo unspecified) [IFENPRODIL] | 10 nM | – | – | –
